Here are results for 23 compounds from patent publication US9133116B2, “Bicyclic compounds” (PANACEA BIOTEC LTD., priority 2010, dated 2015).

One assay has as its system male SWISS albino mice. The experiment in a line: Forced Swim Test in mice. As to conditions: oral, 15 min before test, immobility in last 4 min of 6 min. The class given is in vivo. As to the method: This test was conducted according to the method of Li, X., et al., Metabotropic Glutamate 5 Receptor Antagonism Is Associated with Antidepressant-Like Effects in Mice. J Pharmacol Exp Ther., 319(1):254-259 (2006), with slight modifications.
A test compound was suspended in 0.25% CMC, unless otherwise specified, and this solution was orally administered to male SWISS albino mice (7 to 9 week old). 15 min later, the mice were placed in a water tank having a water depth of 15 cm and a water temperature of 25±1° C. and immediately thereafter allowed to swim for 6 min. Then, a time during which the mouse was immobile (immobility time) was measured for the last 4 min.
Cleversys Software (Forced Swim Scan) was used for carrying out Forced Swim Test in mice.

The next assay concerns the target T1, SERT (Homo sapiens, UniProt P31645).
T1 construct: purchased Perkin Elmer
The experiment in a line: Serotonin Binding Assay ([3H]-Citalopram Binding Assay). The settings on record: NE = Not Effective; for inhibition at 0.1 µM / inhibition at 1 µM: 1 h. The procedure:
2. Serotonin Binding Assay
The Membrane protein of 0.4 mL size vial, with protein concentration of 9.0 mg/ml was bought from Perkin Elmer, stored in −80° C. until required.
[^3H]-Citalopram Binding Assay:
(§1) Each well of 96 well microtitre plate was set up to contain the following:
The microtitre plates were incubated at 25° C. for 60 min; reaction was stopped by filtration in GF/B filter plate (presoaked in 0.5% Polyethylenimine) and then added 50 μL of microscint 40. Radioactivity was measured on Liquid Scintillation counter (Perkin Elmer).

The target in the next assay is T2, NET (Homo sapiens, UniProt P23975).
T2 construct: purchased Perkin Elmer
T2 sequence (P23975 whole entry): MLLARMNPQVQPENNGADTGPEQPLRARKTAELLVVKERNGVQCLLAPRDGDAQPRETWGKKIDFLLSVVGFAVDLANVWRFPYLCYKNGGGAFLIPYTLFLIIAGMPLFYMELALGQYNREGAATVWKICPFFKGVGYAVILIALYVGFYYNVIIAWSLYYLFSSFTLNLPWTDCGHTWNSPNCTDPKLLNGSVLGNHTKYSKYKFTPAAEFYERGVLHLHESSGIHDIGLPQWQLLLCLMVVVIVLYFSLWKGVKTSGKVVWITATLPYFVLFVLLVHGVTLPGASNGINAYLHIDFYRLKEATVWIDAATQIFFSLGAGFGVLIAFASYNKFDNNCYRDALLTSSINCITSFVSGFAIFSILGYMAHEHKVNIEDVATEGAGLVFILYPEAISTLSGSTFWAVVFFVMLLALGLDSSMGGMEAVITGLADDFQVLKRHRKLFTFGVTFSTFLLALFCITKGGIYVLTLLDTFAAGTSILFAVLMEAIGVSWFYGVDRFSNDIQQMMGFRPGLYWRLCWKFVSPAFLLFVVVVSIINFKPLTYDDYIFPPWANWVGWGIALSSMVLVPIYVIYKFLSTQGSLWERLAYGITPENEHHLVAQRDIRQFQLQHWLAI
Description: Norepinephrine Binding Assay ([3H]-Nisoxetine Binding Assay). The settings on record: NE = Not Effective; for inhibition at 0.1 µM / inhibition at 1 µM: 1 h. The procedure:
1. Norepinephrine Binding Assay
The Membrane protein of 0.4 mL size vial, with protein concentration of 3.0 mg/ml was bought from Perkin Elmer, stored in −80° C. until required.
[^3H]-Nisoxetine Binding Assay:
as §1
The microtitre plates were incubated at 4° C. for 60 mins; reaction was stopped by filtration in GF/B filter plate (presoaked in 0.5% Polyethylenimine) and then added 50 μl of microscint 40. Radioactivity was measured on Liquid Scintillation counter (Perkin Elmer).

The target in a further assay is T3, DAT (Homo sapiens, UniProt Q01959).
T3 construct: purchased Perkin Elmer
T3 sequence (Q01959 whole entry): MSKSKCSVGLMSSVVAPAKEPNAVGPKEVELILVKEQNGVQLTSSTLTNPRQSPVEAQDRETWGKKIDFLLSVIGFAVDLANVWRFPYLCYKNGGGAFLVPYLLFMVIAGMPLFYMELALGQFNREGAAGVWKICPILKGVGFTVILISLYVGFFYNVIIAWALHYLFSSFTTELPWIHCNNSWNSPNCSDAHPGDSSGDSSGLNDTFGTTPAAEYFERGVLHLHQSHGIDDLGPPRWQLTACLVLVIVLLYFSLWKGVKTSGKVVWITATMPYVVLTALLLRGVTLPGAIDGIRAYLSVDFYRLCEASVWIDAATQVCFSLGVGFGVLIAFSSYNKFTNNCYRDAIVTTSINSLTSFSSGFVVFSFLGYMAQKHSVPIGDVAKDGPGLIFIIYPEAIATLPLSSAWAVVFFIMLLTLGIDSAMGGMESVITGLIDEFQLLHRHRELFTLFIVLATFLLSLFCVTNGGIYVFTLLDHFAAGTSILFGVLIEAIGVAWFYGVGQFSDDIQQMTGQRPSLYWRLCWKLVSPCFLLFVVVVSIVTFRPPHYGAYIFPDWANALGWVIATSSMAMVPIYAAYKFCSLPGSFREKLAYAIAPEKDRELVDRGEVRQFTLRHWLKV
Description: Dopamine Binding Assay ([3H]-WIN35,428 Binding Assay). The settings on record: NE = Not Effective; for inhibition at 1 µM / inhibition at 0.1 µM: 2 h; for inhibition at 0.1 µM: read-out: DAT % WIN 35428 displacement 100 nM, 100 nM test compound. The procedure: 3. Dopamine Binding Assay
The Membrane protein of 0.4 mL size vial, with protein concentration of 12 mg/mL was bought from Perkin Elmer, stored in −80° C. until required.
[^3H]-WIN35,428 Binding Assay:
as §1
The microtitre plates were incubated at 4° C. for 120 min; reaction was stopped by filtration in GF/B filter plate (presoaked in 0.5% Polyethylenimine) and then added 50 μL of microscint 40. Radioactivity was measured on Liquid Scintillation counter (Perkin Elmer).

[1] abbreviates: read-out: SERT % Citalopram displacement 100 nM, 100 nM test compound.
The mark [2] stands for this setting: read-out: SERT % Citalopram displacement 1 μM, 1 μM test compound.
Setting [3] is: read-out: NET % Nisoxetine displacement 100 nM, 100 nM test compound.
[4] abbreviates: read-out: NET % Nisoxetine displacement 1 μM, 1 μM test compound.
[5] abbreviates: read-out: DAT % WIN 35428 displacement 1 μM, 1 μM test compound.
Where [6] appears, read: 1 μM test compound, read-out: DAT % WIN 35428 displacement 1 μM.
The mark [7] stands for this setting: 100 nM test compound, read-out: SERT % Citalopram displacement 100 nM.
The mark [8] stands for this setting: 1 μM test compound, read-out: SERT % Citalopram displacement 1 μM.
[9] abbreviates: 1 μM test compound, read-out: NET % Nisoxetine displacement 1 μM.

Molecules are shown by their SMILES. Where two headings read alike, the source gives them in different places. Marks after values point to notes of the source that are not given here.

T1 sequence (P31645 whole entry): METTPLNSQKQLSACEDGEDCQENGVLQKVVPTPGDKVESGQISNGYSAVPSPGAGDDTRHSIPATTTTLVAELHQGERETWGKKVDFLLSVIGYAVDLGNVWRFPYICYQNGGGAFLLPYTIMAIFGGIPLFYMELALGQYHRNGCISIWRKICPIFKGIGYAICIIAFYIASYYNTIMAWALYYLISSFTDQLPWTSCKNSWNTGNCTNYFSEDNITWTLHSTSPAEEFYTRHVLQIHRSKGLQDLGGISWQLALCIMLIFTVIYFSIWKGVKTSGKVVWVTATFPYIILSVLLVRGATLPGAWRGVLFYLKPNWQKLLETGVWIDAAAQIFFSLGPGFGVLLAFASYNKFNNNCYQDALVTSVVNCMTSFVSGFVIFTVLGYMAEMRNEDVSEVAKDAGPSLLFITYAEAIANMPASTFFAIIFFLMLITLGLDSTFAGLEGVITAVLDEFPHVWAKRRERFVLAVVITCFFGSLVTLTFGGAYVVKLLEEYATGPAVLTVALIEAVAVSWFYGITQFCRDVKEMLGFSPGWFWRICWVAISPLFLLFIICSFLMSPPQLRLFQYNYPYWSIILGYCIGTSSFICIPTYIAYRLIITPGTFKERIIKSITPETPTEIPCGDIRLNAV

As to `CON=C(c1ccc(Cl)c(Cl)c1)C1C2CNCC21.Cl` (stereo not drawn), in the assay on male SWISS albino mice (vehicle de-ionized water), the “% decrease in immobility time (dose 32 mg/kg)” value (from here on “% decrease in immobility time”) is 80.0 ± 3.8^z %.

On to `CON=CC1C2CNCC12c1ccc(Cl)c(Cl)c1.Cl` (stereo not drawn), for which the “% decrease in immobility time” value in the assay with male SWISS albino mice (vehicle de-ionized water) is 87.5 ± 4.1^z %.

For the compound `CCON=CC1C2CNCC12c1ccc(Cl)c(Cl)c1.Cl` (stereo not drawn), the “% decrease in immobility time” value in the assay with male SWISS albino mice (suspended in 0.25% CMC) is listed as 83.1 ± 9.6%.

Regarding `CON=CC1C2CNCC12c1ccc(Cl)cc1.Cl` (stereo not drawn), the “% decrease in immobility time” value in the assay with male SWISS albino mice (vehicle de-ionized water) is reported as 50.2 ± 14.7^z %.

`CON=CC1C2CNCC12c1ccc(F)cc1.Cl` (stereo not drawn): in the assay with male SWISS albino mice (vehicle de-ionized water), the “% decrease in immobility time” value is recorded as 55.1 ± 13.0^z %.

With `CON=CC1C2CNCC12c1ccccc1.Cl` (stereo not drawn), the “% decrease in immobility time” value in the assay with male SWISS albino mice (suspended in 0.25% CMC) stood at 60.4 ± 12.6%.

In the case of `CON=C(c1ccccc1)C1C2CNCC21` (stereo not drawn), the inhibition at 0.1 µM on SERT (setting [1]) stood at 18.4%. For the same compound, at SERT (setting [2]), the inhibition at 1 µM came to 27.5%.

`CON=C(c1ccc2ccccc2c1)C1C2CNCC21` (stereo not drawn): the results for the inhibition at 0.1 µM at SERT (setting [1]) and at NET (setting [3]) were 77.2% and 21.8%, respectively. Besides, the inhibition at 1 µM was 93.4% at SERT (setting [2]) and 60.5% on NET (setting [4]).

As for `ON=C(c1ccc(Cl)c(Cl)c1)C1C2CNCC21` (stereo not drawn), the figures for the inhibition at 1 µM on DAT (setting [5]), at SERT (setting [2]) and at NET (setting [4]) were 49.6%, 74.8% and 25.1%, respectively. Also, at SERT (setting [1]), the inhibition at 0.1 µM is 29.8%.

As to `CCON=C(c1ccc(Cl)c(Cl)c1)C1C2CNCC21` (stereo not drawn), the inhibition at 1 µM on DAT (setting [5]) worked out at 71%; at SERT (setting [2]) it was 87.5%; on NET (setting [4]) it was 61.5%. The inhibition at 0.1 µM was 49.8% on SERT (setting [1]) and 18.2% on NET (setting [3]).

In the case of `C=CCON=C(c1ccc(Cl)c(Cl)c1)C1C2CNCC21` (stereo not drawn), the inhibition at 1 µM was 78% at DAT (setting [6]), 94.4% at SERT (setting [8]) and 71.3% at NET (setting [9]). Moreover, the inhibition at 0.1 µM at SERT (setting [7]) came to 72.6%; on NET (100 nM test compound, read-out: NET % Nisoxetine displacement 100 nM) it was 14.3%.

For the compound `Clc1ccc(C(=NOCC2CC2)C2C3CNCC32)cc1Cl` (stereo not drawn), the inhibition at 1 µM on DAT (setting [6]) came out at 68.7%; on SERT (setting [8]), 95.5%; on NET (setting [9]) it was 33.9%. Besides, the inhibition at 0.1 µM on SERT (setting [7]) amounted to 69.8%.

`Clc1ccc(C(=NOc2ccccc2)C2C3CNCC32)cc1Cl` (stereo not drawn): the inhibition at 1 µM at SERT (setting [8]) is 61.4%; on NET (setting [9]), 19.1%.

As to `Clc1ccc(C(=NOCc2ccccc2)C2C3CNCC32)cc1Cl` (stereo not drawn), the results for the inhibition at 1 µM at DAT (setting [6]), on SERT (setting [8]) and on NET (setting [9]) were 36%, 85.8% and 27.2%, respectively. Also, the inhibition at 0.1 µM on SERT (setting [7]) amounted to 30.4%.

Turning to `CON=CC1C2CNCC12c1ccc(Cl)c(Cl)c1` (stereo not drawn), the inhibition at 0.1 µM on DAT was 30.6%; at SERT (setting [1]), 65%; on NET (setting [3]), 37.4%. The inhibition at 1 µM at DAT (setting [5]) amounted to 66.3%; on SERT (setting [2]), 91.8%; at NET (setting [4]), 82.3%.

For the compound `CCON=CC1C2CNCC12c1ccc(Cl)c(Cl)c1` (stereo not drawn), the figures for the inhibition at 0.1 µM on DAT and at SERT (setting [1]) were 16.7% and 83.7%, respectively. The inhibition at 1 µM turned out to be 71.8% at DAT (setting [5]) and 94.4% on SERT (setting [2]).

With `Clc1ccc(C23CNCC2C3C=NOCc2ccccc2)cc1Cl` (stereo not drawn), the inhibition at 0.1 µM was determined as 27% on DAT, 23.3% on SERT (setting [1]) and 34.6% at NET (setting [3]). Moreover, the inhibition at 1 µM turned out to be 39% on DAT (setting [5]), 89% at SERT (setting [2]) and 73.6% at NET (setting [4]).

For the compound `Fc1ccc(CON=CC2C3CNCC23c2ccc(Cl)c(Cl)c2)cc1` (stereo not drawn), the inhibition at 1 µM on DAT (setting [6]) was 40.9%; at SERT (setting [8]), 88.8%; at NET (setting [9]), 74.2%. In addition, the inhibition at 0.1 µM at SERT (setting [7]) came to 12.5%.

Turning to `CON=CC1C2CNCC12c1ccc(Cl)cc1` (stereo not drawn), the results for the inhibition at 1 µM on DAT (setting [5]), on SERT (setting [2]) and at NET (setting [4]) were 29.9%, 85.6% and 54.5%, respectively. Also, on SERT (setting [1]), the inhibition at 0.1 µM stood at 37.8%.

In the case of `CON=CC1C2CNCC12c1ccc(F)cc1` (stereo not drawn), the inhibition at 0.1 µM at SERT (setting [1]) was 43.5%. Further, on SERT (setting [2]), the inhibition at 1 µM stood at 85.1%.

For the compound `CON=CC1C2CNCC12c1ccccc1` (stereo not drawn), the inhibition at 0.1 µM on SERT (setting [1]) came out at 39.2%. Also, the inhibition at 1 µM at SERT (setting [2]) is 79.9%.

In the case of `CON=C(c1ccc(Cl)c(Cl)c1)C1C2CNCC21.Cl` (stereo not drawn) [drawing 66], the “DAT % WIN 35428 displacement 1 μM” value on DAT (1 μM test compound) was found to be 32.76%. Also, the results for the inhibition at 0.1 µM on SERT (setting [1]) and on NET (setting [3]) were 43.1% and 15.6%, respectively. Moreover, the inhibition at 1 µM on SERT (setting [2]) was 84.8%; on NET (setting [4]), 75.6%.

Regarding `CON=C(c1ccc(Cl)c(Cl)c1)C1C2CNCC21` (stereo not drawn) [drawing 72], the “DAT % WIN 35428 displacement 1 μM” value on DAT (1 μM test compound) is reported as 64.58%. The inhibition at 0.1 µM at DAT came out at 28.1%. The “SERT % Citalopram displacement 100 nM” value on SERT (100 nM test compound) turned out to be 50.25%. In addition, at SERT (1 μM test compound), the “SERT % Citalopram displacement 1 μM” value amounted to 90.07%. Also, the “NET % Nisoxetine displacement 100 nM” value at NET (100 nM test compound) is 24.48%. For the same compound, the “NET % Nisoxetine displacement 1 μM” value on NET (1 μM test compound) is reported as 75.97%.
